Key:
HDAC8 = biological target: T1, HDAC8 (Homo sapiens, UniProt Q9BY41); experiment: Inhibition of histone deacetylase isoforms, HDAC8
T1 sequence (Q9BY41 1-377): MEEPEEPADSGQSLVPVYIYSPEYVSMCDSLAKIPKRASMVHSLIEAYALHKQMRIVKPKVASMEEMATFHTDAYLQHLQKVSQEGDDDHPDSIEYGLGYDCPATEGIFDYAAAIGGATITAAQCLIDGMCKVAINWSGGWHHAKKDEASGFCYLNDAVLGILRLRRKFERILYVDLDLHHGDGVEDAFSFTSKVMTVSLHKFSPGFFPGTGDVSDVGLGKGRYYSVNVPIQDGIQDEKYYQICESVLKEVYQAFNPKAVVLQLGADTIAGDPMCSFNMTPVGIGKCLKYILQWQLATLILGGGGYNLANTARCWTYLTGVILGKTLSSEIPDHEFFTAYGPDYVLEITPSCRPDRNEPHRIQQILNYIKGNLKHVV
Description: (§1) Recombinant human enzymes were acquired from BPS Biosciences (CA, USA). Isoforms of Class I HDAC1, 2, 3; HDAC6, 10 of Class IIb and Class IV HDAC11 were tested using the Fluor-de-Lys fluorogenic synthetic substrate (Enzo Life Sciences, Plymouth Meeting, Pa.). […] The recombinant human HDAC8 assay was performed using HDAC8 Fluorimetric Drug Discovery Kit (Enzo) according to the manufacturer instructions. Each inhibitor was dissolved in DMSO and then further diluted in an assay buffer. […] The assays were performed by pre-incubating each enzyme with the inhibitors for 15 minutes at 37° C. The reaction was started by adding the substrate at 37° C. and allowed to proceed for 60 minutes. The fluorescent signal was generated by adding 50 μL of a twice concentrated developer solution 2 (Enzo) containing trichostatin A 4 μM.

HDAC10 = biological target: T2, HDAC10 (Homo sapiens, UniProt Q969S8); experiment: Inhibition of histone deacetylase isoforms, HDAC10
T2 sequence (Q969S8 1-669): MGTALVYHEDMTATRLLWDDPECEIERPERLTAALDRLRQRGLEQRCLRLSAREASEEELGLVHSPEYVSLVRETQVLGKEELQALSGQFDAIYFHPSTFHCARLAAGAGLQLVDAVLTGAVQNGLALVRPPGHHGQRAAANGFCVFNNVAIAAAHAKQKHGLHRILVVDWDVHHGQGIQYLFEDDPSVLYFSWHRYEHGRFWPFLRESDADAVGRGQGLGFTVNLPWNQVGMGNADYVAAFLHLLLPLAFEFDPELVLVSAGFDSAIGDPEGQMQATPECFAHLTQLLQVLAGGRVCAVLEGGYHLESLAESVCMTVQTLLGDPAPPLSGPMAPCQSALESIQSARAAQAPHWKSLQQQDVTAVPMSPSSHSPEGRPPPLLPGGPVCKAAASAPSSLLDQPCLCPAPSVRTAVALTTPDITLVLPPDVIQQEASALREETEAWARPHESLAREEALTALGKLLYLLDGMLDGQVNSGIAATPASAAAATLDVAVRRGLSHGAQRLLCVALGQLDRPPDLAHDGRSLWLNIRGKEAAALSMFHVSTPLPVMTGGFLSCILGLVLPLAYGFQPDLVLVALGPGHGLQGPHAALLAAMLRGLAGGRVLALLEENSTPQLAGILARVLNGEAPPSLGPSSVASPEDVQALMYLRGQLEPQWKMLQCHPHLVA
Description: (§2) Recombinant human enzymes were acquired from BPS Biosciences (CA, USA). Isoforms of Class I HDAC1, 2, 3; HDAC6, 10 of Class IIb and Class IV HDAC11 were tested using the Fluor-de-Lys fluorogenic synthetic substrate (Enzo Life Sciences, Plymouth Meeting, Pa.). […] Each inhibitor was dissolved in DMSO and then further diluted in an assay buffer. […] The assays were performed by pre-incubating each enzyme with the inhibitors for 15 minutes at 37° C. The reaction was started by adding the substrate at 37° C. and allowed to proceed for 60 minutes. The fluorescent signal was generated by adding 50 μL of a twice concentrated developer solution 2 (Enzo) containing trichostatin A 4 μM.

HDAC3 = HDAC3 (Homo sapiens, UniProt O15379); experiment: Inhibition of histone deacetylase isoforms, HDAC3
Description: as §1

HDAC2 = HDAC2 (Homo sapiens, UniProt Q92769); experiment: Inhibition of histone deacetylase isoforms, HDAC2
Description: as §1

HDAC11 = biological target: T3, HDAC11 (Homo sapiens, UniProt Q96DB2); experiment: Inhibition of histone deacetylase isoforms, HDAC11
T3 sequence (Q96DB2 1-347): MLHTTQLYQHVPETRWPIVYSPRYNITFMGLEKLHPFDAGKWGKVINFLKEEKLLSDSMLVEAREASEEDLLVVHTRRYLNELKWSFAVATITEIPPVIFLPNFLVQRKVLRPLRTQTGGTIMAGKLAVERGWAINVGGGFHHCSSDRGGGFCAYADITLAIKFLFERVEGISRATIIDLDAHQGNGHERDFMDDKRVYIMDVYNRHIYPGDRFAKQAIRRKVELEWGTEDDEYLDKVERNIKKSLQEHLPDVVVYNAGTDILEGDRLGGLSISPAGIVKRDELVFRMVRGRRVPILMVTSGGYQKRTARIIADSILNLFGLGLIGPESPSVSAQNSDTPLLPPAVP
Description: as §2

[1] = tested on: HIV-1 expression in ACH-2 cells; experiment: Induction of the HIV-1 expression in the ACH-2 cell line (p24); assay type: cell-based; settings: 24 hours
Description: ACH2 cells were obtained through AIDS Research and Reference Reagent Program, Division of AIDS, National Institute of Allergy and Infectious Diseases, National Institutes of Health, Bethesda, Md. The cells were cultured in flasks, washed in RPMI and resuspended in RPMI/10% FCS at a concentration of 2×10^6 cells/mL. […] After 24 hours of incubation at 37° C./5% CO2, 50 μL of supernatant were removed for the cytotoxicity assay of the lactate dehydrogenase (LDH) and Triton-X-100 (0.5% vol/vol final concentration) were added to each culture. The p24 assays of the lysates were performed immediately.
p24 was measured using specific antibodies immobilized on magnetic beads as previously described [Nold M. F. et al. J. Immunol. […] The levels of p24 for each experiment without HDAC inhibitors were fixed at 1.0 and the increase values by the number of times for each experiment and each analogous were calculated.

HDAC1 = HDAC1 (Homo sapiens, UniProt Q13547); experiment: Inhibition of histone deacetylase isoforms, HDAC1
Chain of HDAC1 (Q13547 whole entry, canonical isoform): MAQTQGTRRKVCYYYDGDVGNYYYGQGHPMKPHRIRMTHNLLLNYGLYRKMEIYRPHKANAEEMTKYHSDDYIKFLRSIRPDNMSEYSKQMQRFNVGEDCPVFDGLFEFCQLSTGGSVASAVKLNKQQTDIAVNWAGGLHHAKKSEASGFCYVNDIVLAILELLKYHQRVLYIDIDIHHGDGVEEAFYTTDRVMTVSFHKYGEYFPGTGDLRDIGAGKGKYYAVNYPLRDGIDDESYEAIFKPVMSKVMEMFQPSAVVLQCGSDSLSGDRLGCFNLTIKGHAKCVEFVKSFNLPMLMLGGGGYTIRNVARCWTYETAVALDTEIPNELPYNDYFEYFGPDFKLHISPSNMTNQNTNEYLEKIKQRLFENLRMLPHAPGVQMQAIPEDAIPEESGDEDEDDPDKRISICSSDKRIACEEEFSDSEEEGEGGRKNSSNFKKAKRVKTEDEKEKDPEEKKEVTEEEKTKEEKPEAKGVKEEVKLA
Description: as §2

Chain of HDAC2 (Q92769 whole entry, canonical isoform): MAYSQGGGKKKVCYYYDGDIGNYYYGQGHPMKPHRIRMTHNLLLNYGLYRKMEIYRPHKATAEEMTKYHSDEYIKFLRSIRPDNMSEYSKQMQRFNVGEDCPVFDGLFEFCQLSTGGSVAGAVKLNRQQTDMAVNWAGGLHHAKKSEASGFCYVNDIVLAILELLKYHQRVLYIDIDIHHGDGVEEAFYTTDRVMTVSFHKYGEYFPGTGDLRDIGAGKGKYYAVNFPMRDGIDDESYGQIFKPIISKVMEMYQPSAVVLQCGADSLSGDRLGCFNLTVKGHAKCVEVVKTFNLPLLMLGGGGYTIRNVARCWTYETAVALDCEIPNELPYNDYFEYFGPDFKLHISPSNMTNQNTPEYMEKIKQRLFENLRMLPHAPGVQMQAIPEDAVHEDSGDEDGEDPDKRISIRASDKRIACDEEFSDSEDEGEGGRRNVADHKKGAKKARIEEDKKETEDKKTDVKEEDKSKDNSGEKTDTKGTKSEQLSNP
Chain of HDAC3 (O15379 whole entry, canonical isoform): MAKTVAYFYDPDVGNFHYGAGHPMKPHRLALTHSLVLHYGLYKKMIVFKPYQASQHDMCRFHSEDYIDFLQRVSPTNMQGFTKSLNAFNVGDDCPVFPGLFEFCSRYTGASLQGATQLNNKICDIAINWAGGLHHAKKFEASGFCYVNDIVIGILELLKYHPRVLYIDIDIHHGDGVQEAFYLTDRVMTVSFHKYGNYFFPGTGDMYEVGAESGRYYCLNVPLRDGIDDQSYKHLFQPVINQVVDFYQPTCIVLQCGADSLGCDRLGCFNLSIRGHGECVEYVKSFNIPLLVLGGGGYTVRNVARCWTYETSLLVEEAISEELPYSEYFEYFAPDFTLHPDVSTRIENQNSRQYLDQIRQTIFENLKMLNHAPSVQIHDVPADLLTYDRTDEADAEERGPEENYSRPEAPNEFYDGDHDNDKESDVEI
Chain of HDAC3 (Q9Y618 395-489 partner limits assumed): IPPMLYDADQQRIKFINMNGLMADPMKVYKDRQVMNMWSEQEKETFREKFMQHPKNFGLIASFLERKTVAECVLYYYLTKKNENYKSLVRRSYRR

`O=C(NO)c1ccc(NC(=O)[C@H](Cc2ccc3ccccc3c2)NC(=O)c2ccccc2)cc1` [Compound g, 4-(2(S)-benzoylamino-3-naphtalen-2-yl-propionylamino)-N-hydroxy-benzamide] showed an IC50 (HDAC8) of 492 nM, an IC50 (HDAC10) of 132 nM and an IC50 (HDAC3) of 246 nM. For the same compound, the IC50 (HDAC2) was 12 nM, the IC50 (HDAC11) was 441 nM and the “increase of the number of times in the level of p24 with respect to control” value (“increase of the number of times” for short) ([1]; 31 nM) was 2 times. The “increase of the number of times” value ([1]; 63 nM) was 3 times, the “increase of the number of times” value ([1]; 125 nM) was 10 times and the “increase of the number of times” value ([1]; 250 nM) was 27 times. The “increase of the number of times” value ([1]; 250 nM, listed as compound g) was 30 times and the IC50 (HDAC1) was 54.7 nM.

Compound `O=C(NO)c1ccc(NC(=O)[C@H](Cc2ccc3ccccc3c2)NC(=O)c2ccc3c(c2)OCO3)cc1` [Compound t, benzo[1,3]dioxole-5-carboxylic acid [1(S)-(4-hydroxycarbamoyl-phenylcarbamoyl)-2-naphtalen-2-yl-ethy]-amide] has an IC50 (HDAC8) of 162 nM, an IC50 (HDAC10) of 276 nM and an IC50 (HDAC3) of 107 nM. The IC50 (HDAC2) was 29.5 nM, the IC50 (HDAC11) was 336 nM and the “increase of the number of times” value ([1]; 31 nM) was 1 times. The “increase of the number of times” value ([1]; 63 nM) was 2 times, the “increase of the number of times” value ([1]; 125 nM) was 10 times and the “increase of the number of times” value ([1]; 250 nM) was 33 times. The “increase of the number of times” value ([1]; 250 nM, listed as compound t) was 30 times and the IC50 (HDAC1) was 71.5 nM.
